From ChEMBL document CHEMBL3132793, “Novel FK506 and FK520 analogues via mutasynthesis: mutasynthon scope and product characteristics” (Medchemcomm, 2013)
Values after ≈ are worked out from the molar mass of the structure shown.

What was measured:
[1] = Solubility of the compound in phosphate buffered saline; format: physicochemical
[2] = Inhibition of calcineurin in human Jurkat cells assessed as inhibition of NFAT-mediated IL-2 production after 8 hrs by beta-lactamase reporter gene assay; format: cell-based
[3] = Half life in human liver microsomes; format: ADME
[4] = Half life in mouse liver microsomes; format: ADME, Microsome
[5] = phosphate buffered saline, read-out: solubility

| SMILES | solubility [1, 5] [µM] | IC50 [2] [nM] | half-life [3] [min] | half-life [4] [min] | solubility ([1]; buffer) [µM] |
| --- | --- | --- | --- | --- | --- |
| C=CC[C@@H]1/C=C(\C)C[C@H](C)C[C@H](OC)[C@H]2O[C@@](O)(C(=O)C(=O)N3CCCC[C@H]3C(=O)O[C@H](/C(C)=C/[C@H]3CC=CCC3)[C@H](C)[C@@H](O)CC1=O)[C@H](C)C[C@@H]2OC | 0.7 (≈ 0.529 µg/mL) | 0.433 | 5.7 | 3 |  |
| CC[C@@H]1/C=C(\C)C[C@H](C)C[C@H](OC)[C@H]2O[C@@](O)(C(=O)C(=O)N3CCCC[C@H]3C(=O)O[C@H](/C(C)=C/[C@@H]3CC[C@@H](O)[C@@H](F)C3)[C@H](C)[C@@H](O)CC1=O)[C@H](C)C[C@@H]2OC | 35.6 (≈ 27.8 µg/mL) | 0.082 | 3.2 | 11.3 |  |
| CC[C@@H]1/C=C(\C)C[C@H](C)C[C@H](OC)[C@H]2O[C@@](O)(C(=O)C(=O)N3CCCC[C@H]3C(=O)O[C@H](/C(C)=C/C3CCOCC3)[C@H](C)[C@@H](O)CC1=O)[C@H](C)C[C@@H]2OC | 13.4 (≈ 10 µg/mL) | 0.461 | 1.8 | 7.6 |  |
| CO[C@H]1C[C@@H](C)C/C(C)=C/[C@@H](C)C(=O)C[C@H](O)[C@@H](C)[C@@H](/C(C)=C/[C@@H]2CC[C@@H](O)[C@@H](F)C2)OC(=O)[C@@H]2CCCCN2C(=O)C(=O)[C@]2(O)O[C@H]1[C@@H](OC)C[C@H]2C |  | 0.283 |  |  |  |
| CC[C@@H]1/C=C(\C)C[C@H](C)C[C@H](OC)[C@H]2O[C@@](O)(C(=O)C(=O)N3CCCC[C@H]3C(=O)O[C@H](/C(C)=C/[C@@H]3CC[C@@H](O)[C@H](OC)C3)[C@H](C)[C@@H](O)CC1=O)[C@H](C)C[C@@H]2OC [ASCOMYCIN] |  | 0.205 | 2.4 | 17.4 | 40.2 (≈ 31.8 µg/mL) |
| C=CC[C@@H]1/C=C(\C)C[C@H](C)C[C@H](OC)[C@H]2O[C@@](O)(C(=O)C(=O)N3CCCC[C@H]3C(=O)O[C@H](/C(C)=C/[C@@H]3CC[C@@H](O)[C@H](OC)C3)[C@H](C)[C@@H](O)CC1=O)[C@H](C)C[C@@H]2OC [TACROLIMUS ANHYDROUS] | 42.4 (≈ 34.1 µg/mL) | 0.056 | 2.4 | 22.1 |  |

Continued, values first:

| solubility [1, 5] [µM] | IC50 [2] [nM] | half-life [3] [min] | half-life [4] [min] | solubility ([1]; buffer) [µM] | SMILES |
| --- | --- | --- | --- | --- | --- |
| 1.3 (≈ 1.01 µg/mL) | 0.145 | 2.6 | 9 |  | C=CC[C@@H]1/C=C(\C)C[C@H](C)C[C@H](OC)[C@H]2O[C@@](O)(C(=O)C(=O)N3CCCC[C@H]3C(=O)O[C@H](/C(C)=C/[C@H]3CC[C@H](O)CC3)[C@H](C)[C@@H](O)CC1=O)[C@H](C)C[C@@H]2OC |
|  | 0.249 |  |  |  | CC[C@@H]1/C=C(\C)C[C@H](C)C[C@H](OC)[C@H]2O[C@@](O)(C(=O)C(=O)N3CCCC[C@H]3C(=O)O[C@H](/C(C)=C/[C@H]3CC[C@H](O)CC3)[C@H](C)[C@@H](O)CC1=O)[C@H](C)C[C@@H]2OC |
| 86.5 (≈ 67.1 µg/mL) | 0.072 | 3.1 | 3.8 |  | CC[C@@H]1/C=C(\C)C[C@H](C)C[C@H](OC)[C@H]2O[C@@](O)(C(=O)C(=O)N3CCCC[C@H]3C(=O)O[C@H](/C(C)=C/[C@H]3CCCC(O)CC3)[C@H](C)[C@@H](O)CC1=O)[C@H](C)C[C@@H]2OC (stereo not given in full) |
